Data reported in PubChem BioAssay AID276 (DTP/NCI, 2004).
Where “and” joins values, the source holds several entries; their conditions need not be identical. Equal entries are not always repeated. Inconclusive results and toxic doses are left out. How the source made its calls: active means survival T/C of 150% or more; inactive means T/C below 125% in these data.

System: B6C3F1 mice, Lewis lung carcinoma iv, survival T/C
Test: NCI In Vivo Anticancer Drug Screen. Data for tumor model Lewis Lung Carcinoma (intravenous) in B6C3F1 mice
Conditions: endpoint: median survival time, higher = longer survival
Method in brief: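 T/C ratio derived from survival of compound-treated versus vehicle-treated mice bearing transplantable tumors.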

[1] = dose: 12.0 mg/kg/injection, schedule: Q01DX009 (ip), vehicle: Klucel (hydroxypropylcellulose) (HPC)
[2] = dose: 12.5 mg/kg/injection, schedule: Q01DX009 (ip), vehicle: Klucel (hydroxypropylcellulose) (HPC)
[3] = dose: 25.0 mg/kg/injection, schedule: Q01DX009 (ip), vehicle: Klucel (hydroxypropylcellulose) (HPC)
[4] = dose: 50.0 mg/kg/injection, schedule: Q01DX009 (ip), vehicle: Klucel (hydroxypropylcellulose) (HPC)
[5] = dose: 100.0 mg/kg/injection, schedule: Q01DX009 (ip), vehicle: Klucel (hydroxypropylcellulose) (HPC)
[6] = dose: 200.0 mg/kg/injection, schedule: Q01DX009 (ip), vehicle: Klucel (hydroxypropylcellulose) (HPC)
[7] = dose: 3.12 mg/kg/injection, schedule: Q01DX009 (ip), vehicle: suspension in saline
[8] = dose: 6.25 mg/kg/injection, schedule: Q01DX009 (ip), vehicle: suspension in saline
[9] = dose: 25.0 mg/kg/injection, schedule: Q01DX009 (ip), vehicle: saline with Tween-80
[10] = dose: 50.0 mg/kg/injection, schedule: Q01DX009 (ip), vehicle: saline with Tween-80
[11] = dose: 100.0 mg/kg/injection, schedule: Q01DX009 (ip), vehicle: saline with Tween-80
[12] = dose: 200.0 mg/kg/injection, schedule: Q01DX009 (ip), vehicle: saline with Tween-80
[13] = dose: 400.0 mg/kg/injection, schedule: Q01DX009 (ip), vehicle: saline with Tween-80
[14] = dose: 12.5 mg/kg/injection, schedule: Q01DX009 (ip), vehicle: saline
[15] = dose: 25.0 mg/kg/injection, schedule: Q01DX009 (ip), vehicle: saline
[16] = dose: 50.0 mg/kg/injection, schedule: Q01DX009 (ip), vehicle: saline
[17] = dose: 100.0 mg/kg/injection, schedule: Q01DX009 (ip), vehicle: saline
[18] = dose: 12.5 mg/kg/injection, schedule: Q01DX009 (ip), vehicle: saline with Tween-80
[19] = dose: 3.12 mg/kg/injection, schedule: Q01DX009 (ip), vehicle: saline with Tween-80
[20] = dose: 6.25 mg/kg/injection, schedule: Q01DX009 (ip), vehicle: saline with Tween-80
[21] = dose: 1.56 mg/kg/injection, schedule: Q01DX009 (ip), vehicle: saline

Measured: T/C

Cc1ccc(NCCN(C)C)c2c(=O)c3cc(O)ccc3sc12
active: [6] 155 % of control
120 % of control and 232 % of control: [5]
inactive: [1] 101 % of control | [2] 103 % of control | [3] 105 % of control and 121 % of control | [4] 121 % of control and 123 % of control

C[Si](C)(C)OSc1ccccc1[N+](=O)[O-]
inactive: [2] 120 % of control | [3] 110 % of control | [4] 102 % of control | [5] 102 % of control | [6] 102 % of control | dose: 400.0 mg/kg/injection, schedule: Q01DX009 (ip), vehicle: Klucel (hydroxypropylcellulose) (HPC) 104 % of control

c1cc(-c2cc3ccc(C4=NCCN4)cc3[nH]2)ccc1C1=NCCN1
inactive: [7] 100 % of control | [8] 120 % of control | dose: 12.5 mg/kg/injection, schedule: Q01DX009 (ip), vehicle: suspension in saline 115 % of control | dose: 25.0 mg/kg/injection, schedule: Q01DX009 (ip), vehicle: suspension in saline 111 % of control

O=C(c1cccnc1)c1cc(-c2ccccn2)c(=O)n2ccccc12
inactive: [9] 100 % of control | [10] 96 % of control | [11] 102 % of control | [12] 105 % of control | [13] 102 % of control

COC(OC(CO)C(O)S(=O)(=O)O)C(O)S(=O)(=O)O (stereo unspecified)
inactive: [14] 109 % of control | [15] 106 % of control | [16] 97 % of control | [17] 102 % of control | dose: 200.0 mg/kg/injection, schedule: Q01DX009 (ip), vehicle: saline 98 % of control

COC1/C=C/O[C@@]2(C)Oc3c(C)c(O)c4c(O)c(cc(O)c4c3C2=O)NC(=O)/C(C)=C\C=C\[C@H](C)C(O)[C@@H](C)[C@@H](O)[C@@H](C)[C@H](OC(C)=O)[C@@H]1C (stereo partly specified)
inactive: [18] 109 % of control | [9] 106 % of control | [10] 105 % of control | [11] 101 % of control | [12] 101 % of control | [13] 100 % of control

CCOC(=O)C1(c2ccccc2)C(=O)Oc2ccccc21 (stereo unspecified)
inactive: [18] 97 % of control | [9] 97 % of control | [10] 96 % of control | [11] 97 % of control | [12] 99 % of control | [13] 99 % of control

COc1cc([C@@H]2c3cc4c(cc3[C@@H](OC3OC5COC(C)OC5C(O)C3O)[C@H]3COC(=O)[C@H]23)OCO4)cc(OC)c1O (stereo partly specified)
active: dose: 8.0 mg/kg/injection, schedule: Q01DX009 (ip), vehicle: suspension in saline 151 % of control | dose: 16.0 mg/kg/injection, schedule: Q01DX009 (ip), vehicle: suspension in saline 166 % of control and 252 % of control
inactive: dose: 0.5 mg/kg/injection, schedule: Q01DX009 (ip), vehicle: Klucel (hydroxypropylcellulose) (HPC) 101 % of control | dose: 1.0 mg/kg/injection, schedule: Q01DX009 (ip), vehicle: Klucel (hydroxypropylcellulose) (HPC) 102 % of control | dose: 2.0 mg/kg/injection, schedule: Q01DX009 (ip), vehicle: Klucel (hydroxypropylcellulose) (HPC) 113 % of control | dose: 2.0 mg/kg/injection, schedule: Q01DX009 (ip), vehicle: suspension in saline 113 % of control and 121 % of control | dose: 4.0 mg/kg/injection, schedule: Q01DX009 (ip), vehicle: Klucel (hydroxypropylcellulose) (HPC) 124 % of control | dose: 4.0 mg/kg/injection, schedule: Q01DX009 (ip), vehicle: suspension in saline 109 % of control

C[CH2][Sn]([CH2]C)([CH2]C(=O)OC)[CH2]C(=O)OC
inactive: dose: 0.78 mg/kg/injection, schedule: Q01DX009 (ip), vehicle: saline with Tween-80 102 % of control | dose: 1.56 mg/kg/injection, schedule: Q01DX009 (ip), vehicle: saline with Tween-80 104 % of control | [19] 99 % of control | [20] 101 % of control | [18] 104 % of control and 105 % of control

O=CC(O)C(O)C(O)C(O)C(=O)O.[NH-]C1CCCCC1[NH-].[Pt+2] (stereo unspecified)
inactive: dose: 0.2 mg/kg/injection, schedule: Q01DX009 (ip), vehicle: saline 93 % of control | dose: 0.39 mg/kg/injection, schedule: Q01DX009 (ip), vehicle: saline 94 % of control | dose: 0.78 mg/kg/injection, schedule: Q01DX009 (ip), vehicle: saline 93 % of control | [21] 106 % of control

Cc1cc(=NO)cc(C)n1O
inactive: dose: 25.0 mg/kg/injection, schedule: Q01DX009 (ip), vehicle: distilled water + alcohol 105 % of control | dose: 50.0 mg/kg/injection, schedule: Q01DX009 (ip), vehicle: distilled water + alcohol 95 % of control and 102 % of control | dose: 100.0 mg/kg/injection, schedule: Q01DX009 (ip), vehicle: distilled water + alcohol 96 % of control and 102 % of control | dose: 200.0 mg/kg/injection, schedule: Q01DX009 (ip), vehicle: distilled water + alcohol 97 % of control and 104 % of control | dose: 400.0 mg/kg/injection, schedule: Q01DX009 (ip), vehicle: distilled water + alcohol 97 % of control and 102 % of control

Oc1c(Cl)cc(C(c2cc(Cl)c(O)c(Cl)c2)C(c2cc(Cl)c(O)c(Cl)c2)c2cc(Cl)c(O)c(Cl)c2)cc1Cl
inactive: [2] 98 % of control | [3] 101 % of control | [4] 104 % of control | [5] 103 % of control | [6] 106 % of control

CCCCCCCC(=O)O[C@H]1[C@H]2[C@@H](CC1(C)C)C(=O)[C@]13O[C@H]1C(=O)[C@]1(CO1)[C@]23C
inactive: dose: 1.25 mg/kg/injection, schedule: Q01DX009 (ip), vehicle: saline with Tween-80 100 % of control | dose: 2.5 mg/kg/injection, schedule: Q01DX009 (ip), vehicle: saline with Tween-80 97 % of control | dose: 5.0 mg/kg/injection, schedule: Q01DX009 (ip), vehicle: saline with Tween-80 102 % of control | dose: 10.0 mg/kg/injection, schedule: Q01DX009 (ip), vehicle: saline with Tween-80 88 % of control

NC1(C(=O)O)CCCC1
inactive: [15] 102 % of control | [16] 109 % of control and 111 % of control and 120 % of control | [17] 121 % of control

CN=S(=O)(OCCCCCOS(=O)(=NC)c1ccccc1)c1ccccc1 (stereo unspecified)
inactive: [19] 101 % of control | [20] 105 % of control | [18] 118 % of control | [9] 108 % of control | [10] 122 % of control

C=C(C)/C([O-])=N/[N+](C)(C)CC(O)CCCCCCCCCCCC (stereo unspecified)
inactive: dose: 1.56 mg/kg/injection, schedule: Q01DX001 (ip), vehicle: saline 96 % of control | dose: 3.12 mg/kg/injection, schedule: Q01DX001 (ip), vehicle: saline 104 % of control | dose: 6.25 mg/kg/injection, schedule: Q01DX001 (ip), vehicle: saline 98 % of control | dose: 12.5 mg/kg/injection, schedule: Q01DX001 (ip), vehicle: saline 109 % of control | dose: 25.0 mg/kg/injection, schedule: Q01DX001 (ip), vehicle: saline 103 % of control and 106 % of control | dose: 50.0 mg/kg/injection, schedule: Q01DX001 (ip), vehicle: saline 98 % of control and 100 % of control | dose: 100.0 mg/kg/injection, schedule: Q01DX001 (ip), vehicle: saline 95 % of control | dose: 200.0 mg/kg/injection, schedule: Q01DX001 (ip), vehicle: saline 97 % of control

O=Cc1c(O)c2ccccc2[nH]c1=O
inactive: [20] 107 % of control | [18] 105 % of control | [9] 113 % of control | [10] 107 % of control | [11] 116 % of control

Nc1ncnc2c1nnn2C1OC(CO)C(O)C1O (stereo unspecified)
inactive: [2] 110 % of control | [3] 103 % of control | [4] 105 % of control

CCOC(=O)Nc1cc2c(c(N)n1)N=C(c1ccc(Cl)cc1Cl)CN2
inactive: [20] 97 % of control | [18] 113 % of control

COc1cc(Cc2nccc3cc(OC)c(OC)cc23)c(C(C)=O)cc1OC
inactive: [2] 98 % of control | [3] 120 % of control | [4] 106 % of control | [5] 101 % of control

CCN(CC)CC[n+]1ccc2c(C)c3[nH]c4ccc(O)cc4c3c(C)c2c1
inactive: [21] 95 % of control | dose: 1.56 mg/kg/injection, schedule: Q01DX009 (ip), vehicle: suspension in saline 106 % of control | dose: 3.12 mg/kg/injection, schedule: Q01DX009 (ip), vehicle: saline 100 % of control | [7] 100 % of control | dose: 6.25 mg/kg/injection, schedule: Q01DX009 (ip), vehicle: saline 106 % of control | [8] 116 % of control | [14] 98 % of control

COC(=O)Nc1cn2ccc(C(Cl)=C(Cl)Cl)cc2n1
inactive: [5] 116 % of control | [6] 103 % of control

CC(C)NC(=O)N(CCCCBr)N=O
inactive: [1] 114 % of control | [3] 98 % of control | [4] 116 % of control
